Assay results taken from the NIST ThermoML archive (doi:10.1021/acs.jced.7b01125).
± gives the expanded uncertainty stated by the source.

Assay: xn = mol fraction of the nth substance listed
Settings: Gas, Buoyancy - hydrostatic balance with magnetic suspension - one sinker

## [HH] [hydrogen] + C
250.05 K, 1999 kPa, x2 = 0.9
  mass density: 14.843 ± 0.047 kg/m3
250.05 K, 8002 kPa, x2 = 0.9499
  mass density: 76.259 ± 0.069 kg/m3
250.05 K, 10007 kPa, x2 = 0.9499
  mass density: 101.135 ± 0.074 kg/m3
250.05 K, 11012 kPa, x2 = 0.9499
  mass density: 113.948 ± 0.075 kg/m3
250.05 K, 12006 kPa, x2 = 0.9
  mass density: 113.812 ± 0.071 kg/m3
250.05 K, 12009 kPa, x2 = 0.9499
  mass density: 126.528 ± 0.076 kg/m3
250.05 K, 13012 kPa, x2 = 0.9
  mass density: 124.698 ± 0.072 kg/m3
250.05 K, 13015 kPa, x2 = 0.9499
  mass density: 138.84 ± 0.075 kg/m3
250.05 K, 14014 kPa, x2 = 0.9
  mass density: 135.178 ± 0.073 kg/m3
250.05 K, 14017 kPa, x2 = 0.9499
  mass density: 150.503 ± 0.073 kg/m3
250.05 K, 15015 kPa, x2 = 0.9
  mass density: 145.138 ± 0.073 kg/m3
250.05 K, 15015 kPa, x2 = 0.9499
  mass density: 161.379 ± 0.072 kg/m3
250.05 K, 16007 kPa, x2 = 0.9499
  mass density: 171.395 ± 0.07 kg/m3
250.05 K, 16018 kPa, x2 = 0.9
  mass density: 154.622 ± 0.072 kg/m3
250.05 K, 17011 kPa, x2 = 0.9
  mass density: 163.416 ± 0.072 kg/m3
250.05 K, 17022 kPa, x2 = 0.9499
  mass density: 180.83 ± 0.069 kg/m3
250.05 K, 18018 kPa, x2 = 0.9
  mass density: 171.725 ± 0.071 kg/m3
250.05 K, 18020 kPa, x2 = 0.9499
  mass density: 189.342 ± 0.068 kg/m3
250.05 K, 18962 kPa, x2 = 0.9499
  mass density: 196.737 ± 0.069 kg/m3
250.05 K, 19023 kPa, x2 = 0.9
  mass density: 179.463 ± 0.071 kg/m3
250.05 K, 19940 kPa, x2 = 0.9
  mass density: 186.044 ± 0.06 kg/m3
260.03 K, 1002 kPa, x2 = 0.4997
  mass density: 4.206 ± 0.032 kg/m3
260.03 K, 1977 kPa, x2 = 0.4997
  mass density: 8.33 ± 0.033 kg/m3
260.03 K, 3002 kPa, x2 = 0.4997
  mass density: 12.694 ± 0.035 kg/m3
260.03 K, 4002 kPa, x2 = 0.4997
  mass density: 16.974 ± 0.037 kg/m3
260.03 K, 5000 kPa, x2 = 0.4997
  mass density: 21.26 ± 0.04 kg/m3
260.03 K, 6003 kPa, x2 = 0.4997
  mass density: 25.579 ± 0.043 kg/m3
260.03 K, 7000 kPa, x2 = 0.4997
  mass density: 29.878 ± 0.047 kg/m3
260.03 K, 8000 kPa, x2 = 0.4997
  mass density: 34.185 ± 0.052 kg/m3
260.03 K, 9003 kPa, x2 = 0.4997
  mass density: 38.489 ± 0.057 kg/m3
260.03 K, 10005 kPa, x2 = 0.4997
  mass density: 42.775 ± 0.063 kg/m3
260.03 K, 11002 kPa, x2 = 0.4997
  mass density: 47.008 ± 0.069 kg/m3
260.03 K, 12008 kPa, x2 = 0.4997
  mass density: 51.246 ± 0.075 kg/m3
260.03 K, 13002 kPa, x2 = 0.4997
  mass density: 55.387 ± 0.082 kg/m3
260.03 K, 14009 kPa, x2 = 0.4997
  mass density: 59.544 ± 0.088 kg/m3
260.03 K, 15005 kPa, x2 = 0.4997
  mass density: 63.583 ± 0.094 kg/m3
260.03 K, 16009 kPa, x2 = 0.4997
  mass density: 67.621 ± 0.1 kg/m3
260.03 K, 17009 kPa, x2 = 0.4997
  mass density: 71.57 ± 0.1 kg/m3
260.03 K, 18006 kPa, x2 = 0.4997
  mass density: 75.418 ± 0.11 kg/m3
260.03 K, 19113 kPa, x2 = 0.4997
  mass density: 79.651 ± 0.11 kg/m3
260.04 K, 999 kPa, x2 = 0.9499
  mass density: 7.267 ± 0.045 kg/m3
260.04 K, 1000 kPa, x2 = 0.9
  mass density: 6.927 ± 0.043 kg/m3
260.04 K, 1999 kPa, x2 = 0.9499
  mass density: 14.926 ± 0.047 kg/m3
260.04 K, 2000 kPa, x2 = 0.9
  mass density: 14.169 ± 0.045 kg/m3
260.04 K, 2999 kPa, x2 = 0.9499
  mass density: 23.006 ± 0.049 kg/m3
260.04 K, 3001 kPa, x2 = 0.9
  mass density: 21.762 ± 0.047 kg/m3
260.04 K, 3999 kPa, x2 = 0.9499
  mass density: 31.515 ± 0.052 kg/m3
260.04 K, 5000 kPa, x2 = 0.9499
  mass density: 40.497 ± 0.054 kg/m3
260.04 K, 5999 kPa, x2 = 0.9499
  mass density: 49.941 ± 0.057 kg/m3
260.04 K, 6001 kPa, x2 = 0.9
  mass density: 46.626 ± 0.054 kg/m3
260.04 K, 7001 kPa, x2 = 0.9
  mass density: 55.622 ± 0.056 kg/m3
260.04 K, 7002 kPa, x2 = 0.9499
  mass density: 59.886 ± 0.06 kg/m3
260.04 K, 8003 kPa, x2 = 0.9
  mass density: 64.951 ± 0.058 kg/m3
260.04 K, 8003 kPa, x2 = 0.9499
  mass density: 70.258 ± 0.062 kg/m3
260.04 K, 9004 kPa, x2 = 0.9
  mass density: 74.538 ± 0.06 kg/m3
260.04 K, 9006 kPa, x2 = 0.9499
  mass density: 81.038 ± 0.064 kg/m3
260.04 K, 10006 kPa, x2 = 0.9
  mass density: 84.334 ± 0.062 kg/m3
260.04 K, 10006 kPa, x2 = 0.9499
  mass density: 92.073 ± 0.067 kg/m3
260.04 K, 11008 kPa, x2 = 0.9
  mass density: 94.232 ± 0.064 kg/m3
260.04 K, 11011 kPa, x2 = 0.9499
  mass density: 103.316 ± 0.068 kg/m3
260.04 K, 12013 kPa, x2 = 0.9499
  mass density: 114.514 ± 0.069 kg/m3
260.04 K, 13017 kPa, x2 = 0.9499
  mass density: 125.55 ± 0.069 kg/m3
260.04 K, 14016 kPa, x2 = 0.9499
  mass density: 136.214 ± 0.069 kg/m3
260.04 K, 15018 kPa, x2 = 0.9499
  mass density: 146.448 ± 0.068 kg/m3
260.04 K, 16023 kPa, x2 = 0.9499
  mass density: 156.169 ± 0.067 kg/m3
260.04 K, 17019 kPa, x2 = 0.9499
  mass density: 165.22 ± 0.066 kg/m3
260.04 K, 18026 kPa, x2 = 0.9499
  mass density: 173.779 ± 0.066 kg/m3
260.04 K, 18756 kPa, x2 = 0.9499
  mass density: 179.616 ± 0.069 kg/m3
260.05 K, 4000 kPa, x2 = 0.9
  mass density: 29.682 ± 0.049 kg/m3
260.05 K, 5000 kPa, x2 = 0.9
  mass density: 37.974 ± 0.051 kg/m3
260.05 K, 12009 kPa, x2 = 0.9
  mass density: 104.112 ± 0.065 kg/m3
260.05 K, 13009 kPa, x2 = 0.9
  mass density: 113.883 ± 0.066 kg/m3
260.05 K, 14013 kPa, x2 = 0.9
  mass density: 123.483 ± 0.066 kg/m3
260.05 K, 15017 kPa, x2 = 0.9
  mass density: 132.774 ± 0.067 kg/m3
260.05 K, 16016 kPa, x2 = 0.9
  mass density: 141.654 ± 0.067 kg/m3
260.05 K, 17013 kPa, x2 = 0.9
  mass density: 150.096 ± 0.068 kg/m3
260.05 K, 17614 kPa, x2 = 0.9
  mass density: 154.98 ± 0.072 kg/m3
275 K, 1001 kPa, x2 = 0.4997
  mass density: 3.964 ± 0.031 kg/m3
275 K, 2001 kPa, x2 = 0.4997
  mass density: 7.947 ± 0.032 kg/m3
275 K, 3002 kPa, x2 = 0.4997
  mass density: 11.95 ± 0.034 kg/m3
275 K, 4001 kPa, x2 = 0.4997
  mass density: 15.957 ± 0.035 kg/m3
275 K, 5001 kPa, x2 = 0.4997
  mass density: 19.969 ± 0.037 kg/m3
275 K, 6001 kPa, x2 = 0.4997
  mass density: 23.987 ± 0.041 kg/m3
275 K, 7001 kPa, x2 = 0.4997
  mass density: 27.997 ± 0.044 kg/m3
275 K, 8001 kPa, x2 = 0.4997
  mass density: 31.996 ± 0.048 kg/m3
275 K, 9003 kPa, x2 = 0.4997
  mass density: 35.989 ± 0.052 kg/m3
275 K, 10000 kPa, x2 = 0.4997
  mass density: 39.943 ± 0.057 kg/m3
275 K, 12001 kPa, x2 = 0.4997
  mass density: 47.79 ± 0.066 kg/m3
275 K, 13004 kPa, x2 = 0.4997
  mass density: 51.668 ± 0.071 kg/m3
275.01 K, 999 kPa, x2 = 0.9499
  mass density: 6.842 ± 0.043 kg/m3
275.01 K, 1000 kPa, x2 = 0.9
  mass density: 6.522 ± 0.041 kg/m3
275.01 K, 1999 kPa, x2 = 0.9499
  mass density: 13.98 ± 0.044 kg/m3
275.01 K, 2001 kPa, x2 = 0.9
  mass density: 13.293 ± 0.043 kg/m3
275.01 K, 2997 kPa, x2 = 0.9499
  mass density: 21.412 ± 0.046 kg/m3
275.01 K, 3001 kPa, x2 = 0.9
  mass density: 20.304 ± 0.044 kg/m3
275.01 K, 4001 kPa, x2 = 0.9
  mass density: 27.568 ± 0.046 kg/m3
275.01 K, 4002 kPa, x2 = 0.9499
  mass density: 29.206 ± 0.048 kg/m3
275.01 K, 5002 kPa, x2 = 0.9499
  mass density: 37.281 ± 0.05 kg/m3
